Molecules are shown by their SMILES. Values joined by “and” are separate entries in the source; they are usually repeats but may differ in a detail not shown here. Identical values can stand only once.

This note sets out measurements from ChEMBL document CHEMBL5604062, “ASAP - ZIKV NS2B-NS3 protease fluorescence dose response” (2024).

The target of this assay is Nonstructural protein 3 (Zika virus, UniProt A0A024AXB9). In words: Functional biochemical assay to identify treatments for viral infectious disease that targets Zika NS2B-NS3 protease. Utilizing a direct enzyme activity measurement method, reading the fluorescence intensity is used to characterize the relative potency of inhibitors as IC50. More on the design: species or system PRVABC59.
Sequence of Nonstructural protein 3 (A0A024AXB9 whole entry): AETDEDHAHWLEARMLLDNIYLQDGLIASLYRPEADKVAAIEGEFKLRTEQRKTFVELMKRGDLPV

With `Brc1csc(CNCCc2nnc[nH]2)c1`, the IC50 – broadly, the concentration needed to halve the response being measured – was above 99.5 µM. As to `FC(F)(F)c1nc(CNCc2cocn2)cs1`, the IC50 was above 99.5 µM.

For `COc1nc(Cl)c(CSc2nc(C)co2)s1`, the concentration for half-maximal inhibition (IC50) was above 99.5 µM. Compound `NCc1cccc(NC(=O)c2cc(Cl)cc3c2cnn3CC2CC2)c1` registered an IC50 of 3.05 µM. In turn, `Cc1cc(C(=O)Nc2cccc(CN)c2)c2cnn(-c3ccc(F)cc3)c2n1` returned a concentration for half-maximal inhibition (IC50) of 61.6 µM.

Compound `NCc1cccc(NC(=O)c2cc(Cl)cc(Cl)c2)c1` yielded an IC50 of 5.55 µM.

The compound `CN(C)Cc1cc(Cl)cc(C(=O)Nc2cccc(CN)c2)c1` had a 50% inhibitory concentration (IC50) of 7.99 µM.

In the case of `Cc1ccc(S(=O)(=O)N2Cc3ccccc3C[C@@H](C(=O)Nc3cccc(CN)c3)C2)cc1`, the IC50 is 43.6 µM.

Take `NCc1cccc(NC(=O)c2cc(NC(=O)OCc3ccccc3)cc(C3CC3)c2)c1`: the IC50 came to 22.1 µM. `C[C@H]1CN(C)C[C@@H](C(=O)Nc2cccc(CN)c2)O1` registered an IC50 above 99.5 µM. Compound `Cc1cc(NC(=O)OCc2ccccc2)cc(C(=O)Nc2cccc(CN)c2)c1` yielded a 50% inhibitory concentration (IC50) of 10.2 µM. The compound `C[C@H]1C[C@@H](C(=O)Nc2cccc(CN)c2)CC(=O)N1` yielded a half-inhibitory concentration (IC50) above 99.5 µM. As to `CSC1(C(=O)N[C@H](CC(=O)Nc2cccc(CN)c2)c2ccc(OCc3ccccc3)c(Br)c2)CCC1`, the IC50 was determined as 11.8 µM.

Compound `CCn1c(=O)c(N2CC[C@H](CO)C2)nc2cc(C(=O)O)ccc21` came in with an IC50 above 99.5 µM.

Compound `NCc1cccc(NC(=O)C2CCNCC2)c1` came in with a 50% inhibitory concentration (IC50) above 99.5 µM. On to `NCc1cc(Br)cc(NC(=O)c2cc(Cl)cc(NC(=O)OCc3ccccc3)c2)c1`, for which it took 16.7 µM to reach half-maximal inhibition (IC50). `CC1(C)CCC(F)(F)C[C@H]1C(=O)Nc1cccc(CN)c1` displayed an IC50 above 99.5 µM. Take `OCCCCCc1nc(-c2ccc(Br)o2)no1`: the IC50 is above 99.5 µM. `CCn1ncc2c(C(=O)Nc3cccc(CN)c3)cc(C)nc21` gave a half-inhibitory concentration (IC50) above 99.5 µM. `O=C(NCCc1nc2ccccc2[nH]1)c1cc2ccc(F)cc2s1` yielded an IC50 above 99.5 µM.

The compound `Cc1cc(C(=O)Nc2cccc(CN)c2)nc(C)n1` displayed a half-inhibitory concentration (IC50) above 99.5 µM. Regarding `O=C(Nc1cc(Cl)cc(C(=O)Nc2cccc(CN3CCCC3=O)c2)c1)OCc1ccccc1`, the half-maximal inhibitory concentration (IC50) is above 99.5 µM.

As to `O=C(Nc1cc(Cl)cc(C(=O)Nc2ccc3c(c2)OCCNC3)c1)OCc1ccccc1`, the IC50 was 15.2 µM. Then `Cc1cc(C(=O)Nc2cccc(CN)c2)c2c(C)nn(CC(=O)NC(C)C)c2n1`, with above 99.5 µM. As to `CN(C)[C@@H]1CCC[C@@H](C(=O)Nc2cccc(CN)c2)C1`, the 50% inhibitory concentration (IC50) is above 99.5 µM. Then `C[C@@H](N)c1cccc(NC(=O)[C@H]2[C@H]3CCCCC[C@H]3[C@H]2NC(=O)OCc2ccccc2)c1`, with 13.1 µM and 12.9 µM; and `Cc1cc(C(=O)Nc2cccc(CN)c2)cc(O)n1`, with above 99.5 µM; and `Cc1ccc(S(=O)(=O)CCCn2ccc3sccc3c2=O)cc1`, with above 99.5 µM.

The compound `COc1ccc(-c2cccc([C@@H](NC(=O)OCc3ccccc3)C(=O)Nc3cccc(CN)c3)c2)cn1` had a half-maximal inhibitory concentration (IC50) of 35.3 µM.

In turn, `c1coc(CSCc2nc(-c3nc[nH]n3)no2)c1` came in with a half-inhibitory concentration (IC50) above 99.5 µM.

The compound `NCc1cccc(NC(=O)c2cc(NC(=O)OCc3ccccc3)cc(C(F)(F)F)c2)c1` registered an IC50 of 14.6 µM. In turn, `NCc1cccc(NC(=O)c2c(F)c(Cl)cc(NC(=O)OCc3ccccc3)c2F)c1` displayed an IC50 of 55.6 µM.

Take `CN(C)CCc1ccc(NC(=O)c2cc(Cl)cc(NC(=O)OCc3ccccc3)c2)cc1`: half-maximal inhibition (IC50) was put at 44.5 µM.

For `N#CCc1cccc(NC(=O)c2cc(Cl)cc(NC(=O)OCc3ccccc3)c2)c1`, the IC50 is above 99.5 µM. For the compound `NCc1cccc(NC(=O)c2cccc(CN)c2)c1`, the IC50 was found to be 1.87 µM. `O=C(Nc1ccc(Cl)cc1C(=O)Nc1cccc(C2CCNCC2)c1)OCc1ccccc1` registered an IC50 above 99.5 µM. The compound `COc1ccc2nc(C)cc(C(=O)Nc3cccc(CN)c3)c2c1` gave a 50% inhibitory concentration (IC50) above 99.5 µM. Take `NCc1cccc(NC(=O)[C@@]23CCC[C@H](C2)N3C(=O)OCc2ccccc2)c1`: the IC50 was above 99.5 µM. `CN(C)Cc1ccc(NC(=O)c2cc(Cl)cc(NC(=O)OCc3ccccc3)c2)cc1` registered an IC50 of 70.3 µM. Take `NCc1cccc(NC(=O)c2cncc(Cl)c2)c1`: the IC50 was found to be 48.5 µM. Then `O=C(Nc1cc(Cl)cc(C(=O)Nc2ccc(CCN3CCOCC3)cc2)c1)OCc1ccccc1`, with above 99.5 µM. `Cc1cc(C(=O)Nc2cccc(CN)c2)c2c(C)n[nH]c2n1`: the half-inhibitory concentration (IC50) is above 99.5 µM. Turning to `Cc1cc(C(=O)Nc2cccc(CN)c2)cc(NCc2cnn(C)c2)n1`, the concentration for half-maximal inhibition (IC50) is above 99.5 µM. Take `Brc1cnc(Sc2ncc[nH]2)nc1`: the IC50 was above 99.5 µM. For `C[C@H]1CN(C)C[C@H](C(=O)Nc2cccc(CN)c2)O1` the value was above 99.5 µM. Then `c1cc(-c2nnc(NCc3nnn[nH]3)s2)no1`, with above 99.5 µM. For the compound `COc1ccc(-n2nnnc2SC(F)F)cc1`, the IC50 is above 99.5 µM. For `Cc1cc(C(=O)N[C@H](CC(=O)Nc2cccc(CN)c2)c2ccc(OCc3ccccc3)c(Br)c2)sn1` the value was 6.83 µM; for `CS(=O)(=O)Nc1cccc(NC(=O)c2cc(Cl)cc(NC(=O)OCc3ccccc3)c2)c1`, above 99.5 µM. `NCCc1cccc(-c2cccc([C@@H](NC(=O)OCc3ccccc3)C(=O)Nc3cccc(CN)c3)c2)c1` displayed a half-maximal inhibitory concentration (IC50) of 10.5 µM. Turning to `CN(C)CC[C@H](NC(=O)c1cc(Cl)cc(NC(=O)OCc2ccccc2)c1)c1ccccc1`, the concentration for half-maximal inhibition (IC50) is above 99.5 µM.

Regarding `CCc1cccc(NC(=O)[C@]2(Oc3ccc(Br)cc3)CCNC3(CC3)C2)c1`, the IC50 is above 99.5 µM.

In the case of `CS(=O)(=O)c1cccc(NC(=O)c2cc(Cl)cc(NC(=O)OCc3ccccc3)c2)c1`, the IC50 is above 99.5 µM.

Take `C[C@H]1Oc2ccc(NC(=O)c3cc(Cl)cc(NC(=O)OCc4ccccc4)c3)cc2NC1=O`: the IC50 was above 99.5 µM. In turn, `c1cc(Cc2noc(CCc3cscn3)n2)no1` registered an IC50 above 99.5 µM. For `NCc1cccc(NC(=O)[C@H]2CCOC3(CCC3)C2)c1` the value was above 99.5 µM; for `CCn1ncc(-c2noc3nc(C)cc(C(=O)Nc4cccc(CN)c4)c23)c1C`, above 99.5 µM; for `NCc1cccc(NC(=O)[C@H]2CCc3nnc(C4CC4)n3C2)c1`, above 99.5 µM. For the compound `C[C@H]1CN(Cc2ccccc2)C[C@@H](C(=O)Nc2cccc(CN)c2)O1`, the half-maximal inhibitory concentration (IC50) is above 99.5 µM. Regarding `Cc1cc(Cl)cc(C(=O)Nc2cccc(CN)c2)n1`, the IC50 is above 99.5 µM. Regarding `COC1(C(=O)N[C@H](CC(=O)Nc2cccc(CN)c2)c2ccc(OCc3ccccc3)c(Br)c2)CC1`, it took 48.7 µM to reach half-maximal inhibition (IC50). Then `O=S(=O)(Cc1nnc(Cc2ccccc2)o1)c1ccc(O)cc1`, with above 99.5 µM. For `CCOc1cccc(-c2ccc(S(=O)(=O)Nc3cc(F)c(Cl)cc3C(=O)O)cc2)c1` the value was 8.18 µM. In turn, `FC(F)(F)c1nnc(COc2cncnc2)s1` yielded a 50% inhibitory concentration (IC50) above 99.5 µM.

For `NCc1cc(Cl)cc(C(=O)Nc2ccc3c(c2)CNC3)c1`, the half-maximal inhibitory concentration (IC50) amounted to 0.114 µM. As for `COC(=O)[C@]12CC[C@](C(=O)Nc3cccc(CN)c3)(COC1)C2`, the IC50 is above 99.5 µM. As for `CN1CCc2c(cccc2NC(=O)c2cc(Cl)cc(NC(=O)OCc3ccccc3)c2)C1`, the half-maximal inhibitory concentration (IC50) is above 99.5 µM. As to `CSCc1nnc(SCc2ccncc2)o1`, the IC50 was above 99.5 µM.

`Cc1cc(C(=O)Nc2cccc(CN)c2)c2c(n1)CCCC2`: the half-inhibitory concentration (IC50) was above 99.5 µM. Then `O=C(Nc1cc(Cl)cc(C(=O)Nc2ccc3c(c2)CNCC3)c1)OCc1ccccc1`, with 3.4 µM; and `NCc1cccc(NC(=O)[C@@H]2CCCCN2)c1`, with above 99.5 µM.
